Source: publication PMC12521730, “Quantitative dual-isotope preclinical SPECT/CT imaging and biodistribution of the mercury-197m/g theranostic pair with [^197m/gHg]HgCl2 and a [^197m/gHg]Hg-tetrathiol complex as a platform for radiopharmaceutical development” (EJNMMI Radiopharmacy and Chemistry, 2025)

Test: Ex vivo biodistribution (gamma counter)
Assay type: in vivo, healthy male C57BL/6 mice
Conditions: 2 h post administration
Experimental: For animal injection, the tracer was prepared at high molar activity. Radiolabeling of H4Tetrathiol (10^–2 M in DMSO; 40 μL for imaging, 20 μL for bioD) (or DMSO, for [^197m/gHg]HgCl2 mice) with [^197m/gHg]HgCl2 (imaging: 26.7 MBq total m + g, 62 μL; bioD: 13.04 MBq total m + g, 31 μL) was performed in a mixture of ammonium acetate buffer (1 M; pH 7; 198 μL for imaging or 149 μL for bioD) and 6 M NaOH (72 μL or 38 μL required to achieve a pH of 7.5 after addition of activity, for imaging or BioD labeling, respectively). The reaction was allowed to stand for 1 h at 37 °C and quantitative (> 99%) non-isolated percentage radiochemical yield (%RCY) was confirmed via the iTLC methods mentioned above. Further, 100 µL of the reaction was diluted with 50 µL of PBS Tween-20 (0.01 M sodium phosphate, 0.15 M NaCl, 0.05% Tween-20) for imaging mice, or 50 µL of the reaction was diluted with 100 µL of PBS Tween-20 for BioD mice. The tracers were prepared immediately before injection to avoid radiolysis and minimize the tracer loss to any surfaces due to its lipophilicity. The injected doses of each isomer, ^197mHg and ^197gHg, were quantified by measuring an aliquot of known volume of each tracer preparation via HPGe gamma spectroscopy and decay corrected for time of injection using the Eqs. (1) and (2).
The study was conducted in compliance with the guidelines set by the Canadian Council on Animal Care (CCAC) and approved by the Animal Care Committee (ACC) at the University of British Columbia (A20-0132). A total of eight healthy male C57BL/6 mice weighing approximately 30 g for group 1 and 25 g for group 2 were used in the study. The mice were divided into two experimental groups: group 1 (n = 4) received free [^197m/gHg]HgCl2, while group 2 (n = 4) received [^197m/gHg]Hg-Tetrathiol. Within each group, one mouse was allocated for imaging, while the rest were designated for ex vivo biodistribution analysis. For SPECT imaging, the designated mice were anesthetized using isoflurane via a precision vaporizer. […] Once anesthetized, each imaging mouse received an intravenous (IV) injection via the lateral tail vein of 150 μL of [^197m/gHg]HgCl2 (0.492 MBq ^197mHg + 3.171 MBq ^197gHg) or [^197m/gHg]Hg-Tetrathiol (0.899 MBq ^197mHg + 4.230 MBq ^197gHg) in PBS Tween-20 (0.01 M Na Phosphate, 0.15 M NaCl, 0.05% Tween-20).
Mice received an IV injection of [^197m/gHg]HgCl2 (0.275 MBq ^197mHg + 1.758 MBq ^197gHg, 150 μL) or [^197m/gHg]Hg-Tetrathiol (0.384 MBq ^197mHg + 1.733 MBq ^197gHg, 150 μL) (n = 3 per group) via the lateral tail vein using a Tailveiner restrainer. After the injection, the mice were returned to their experimental cages and allowed unrestricted movement. Biodistribution studies were conducted 2 h after administration. Mice were humanely euthanized with an overdose of isoflurane followed by cardiac puncture to collect blood pool activity. The organs of interest were fully extracted, cleaned of blood without rinsing, weighed, and analysed for radioactivity using a calibrated gamma counter with the 55–93 keV energy window for ^197gHg and the 110–160 keV energy window for ^197mHg (Packard Cobra II, Perkin Elmer, Waltham, MA, USA). The stomach and intestines were carefully cleaned prior to analysis to remove residual contents. For tissues and fluids that could not be fully removed (muscle, blood and bone) activity values were extrapolated based on standardised organ weights for age- and sex-matched mice tables to ensure accurate normalization (Davies and Morris [1993]; Foster et al. [2014]). The stomach and whole intestines were cleaned before analysis. The radioactivity measurements were decay corrected for time of injection using the Eqs. (1) and (2). The results are reported as the percentage of the injected activity per gram of tissue (%IA/g) and percentage of the injected activity per tissue (%IA/organ).

## O=C(CC[S-])OCC(COC(=O)CC[S-])(COC(=O)CC[S-])COC(=O)CC[S-].[Hg+2] [[^197m/gHg]Hg-Tetrathiol]
Hg-197g
  Animal 4 (%IA/g) g: heart: 0.72 %IA/g
  Animal 4 (%IA/g) g: kidneys: 2.58 %IA/g
  Animal 4 (%IA/g) g: large intestine: 0.04 %IA/g
  Animal 4 (%IA/g) g: liver: 460.16 %IA/g
  Animal 4 (%IA/g) g: lungs: 6.68 %IA/g
  Animal 4 (%IA/g) g: muscle: 0.02 %IA/g
  Animal 4 (%IA/g) g: pancreas: 0.05 %IA/g
  Animal 4 (%IA/g) g: small intestine: 0.13 %IA/g
  Animal 4 (%IA/g) g: spleen: 73.76 %IA/g
  Animal 4 (%IA/g) g: stomach: 0.12 %IA/g
  Animal 4 (%IA/g) g: tail: 5.66 %IA/g
  Animal 4 (%IA/g) g: urine: 0.03 %IA/g
  Average (%IA/Organ): bladder: 0.00 %IA/Organ
  Average (%IA/Organ): blood: 0.16 %IA/Organ
  Average (%IA/Organ): bone: 2.70 %IA/Organ
  Average (%IA/Organ): brain: 0.01 %IA/Organ
  Average (%IA/Organ): feces: 0.00 %IA/Organ
  Average (%IA/Organ): heart: 0.09 %IA/Organ
  Average (%IA/Organ): kidneys: 1.13 %IA/Organ
  Average (%IA/Organ): large intestine: 0.02 %IA/Organ
  Average (%IA/Organ): lungs: 0.97 %IA/Organ
  Average (%IA/Organ): muscle: 0.19 %IA/Organ
  Average (%IA/Organ): pancreas: 0.01 %IA/Organ
  Average (%IA/Organ): small intestine: 0.02 %IA/Organ
  Average (%IA/Organ): spleen: 4.17 %IA/Organ
  Average (%IA/Organ): stomach: 0.04 %IA/Organ
  Average (%IA/Organ): tail: 1.05 %IA/Organ
  Average (%IA/Organ): urine: 0.00 %IA/Organ
  Average Hg-197g (%IA/g): bladder: 0.049 %IA/g
  Average Hg-197g (%IA/g): blood: 0.11 %IA/g
  Average Hg-197g (%IA/g): bone: 1.42 %IA/g
  Average Hg-197g (%IA/g): brain: 0.025 %IA/g
  Average Hg-197g (%IA/g): feces: 0.023 %IA/g
  Average Hg-197g (%IA/g): heart: 0.71 %IA/g
  Average Hg-197g (%IA/g): kidneys: 2.96 %IA/g
  Average Hg-197g (%IA/g): large intestine: 0.079 %IA/g
  Average Hg-197g (%IA/g): liver: 202.37 %IA/g
  Average Hg-197g (%IA/g): lungs: 7.10 %IA/g
  Average Hg-197g (%IA/g): muscle: 0.017 %IA/g
  Average Hg-197g (%IA/g): pancreas: 0.058 %IA/g
  Average Hg-197g (%IA/g): small intestine: 0.11 %IA/g
  Average Hg-197g (%IA/g): spleen: 64.43 %IA/g
  Average Hg-197g (%IA/g): stomach: 0.37 %IA/g
  Average Hg-197g (%IA/g): tail: 2.18 %IA/g
  Average Hg-197g (%IA/g): urine: 0.029 %IA/g
Hg-197m
  Animal 1 (%IA/g) m: bladder: 0.05 %IA/g
  Animal 1 (%IA/g) m: blood: 0.10 %IA/g
  Animal 1 (%IA/g) m: bone: 2.09 %IA/g
  Animal 1 (%IA/g) m: brain: 0.04 %IA/g
  Animal 1 (%IA/g) m: feces: 0.04 %IA/g
  Animal 1 (%IA/g) m: heart: 0.47 %IA/g
  Animal 1 (%IA/g) m: kidneys: 5.53 %IA/g
  Animal 1 (%IA/g) m: large intestine: 0.14 %IA/g
  Animal 1 (%IA/g) m: lungs: 9.10 %IA/g
  Animal 1 (%IA/g) m: muscle: 0.01 %IA/g
  Animal 1 (%IA/g) m: pancreas: 0.06 %IA/g
  Animal 1 (%IA/g) m: small intestine: 0.16 %IA/g
  Animal 1 (%IA/g) m: spleen: 74.83 %IA/g
  Animal 1 (%IA/g) m: stomach: 0.19 %IA/g
  Animal 1 (%IA/g) m: tail: 1.72 %IA/g
  Animal 1 (%IA/g) m: urine: 0.03 %IA/g
  Animal 2 (%IA/g) m: bladder: 0.02 %IA/g
